These results are taken from patent US20200087625A1, “METHODS FOR ISOLATING, EXPANDING AND ADMINISTERING CANCER SPECIFIC CD8+ T CELLS” (priority 2017, published 2020).

The test system of series [1] is 4T1 cells. The experiment in a line: Spontaneous lung metastasis model, orthotopic 4T1 breast cancer. Format: in vivo, BALB/c mice. Here is the method: FIGS. 22A-22C. Systemic administration of 1V270 inhibits lung metastasis in the 4T1 murine syngeneic breast cancer model in a CD8^+ T cell dependent manner. (A) Protocol of spontaneous metastasis model. 4T1 cells (5×10^5) were inoculated in both 4th mammary pads of Balb/c mice (n=13/group) 1V270 (20, 80, 04 200 μg/injection) was administered on days 7, 10, 14, 17, 21 and 24. (B) The numbers of lung nodules were counted by staining with India ink after harvesting lungs on day 27. (C) The mice (n=6-15/group) were orthotopically implanted with 4T1 cells and i.p. treated with 1V270 (20 μg/injection) as shown in FIG. 1A. CD8^+ cells were depleted by administration of anti-CD8 or isotype mAbs on days 5, 8, 11, 16, 19, and 23. The numbers of lung nodules were counted on day 27. Each dot indicates an individual mouse and horizontal and vertical bars indicate means±SEM. Data shown are pooled from 2 independent experiments. *P<0.05, **P<0.01 by Kruskal-Wallis test with Dunn's post hoc test comparing treatment groups against vehicle group. n.s; statistically not significant.
FIGS. 28A-28C. […] Tumor growth was measured with a caliper and calculated using the formula: volume (mm^3)=(width)^2×length/2. […]
In the spontaneous metastasis model, othotopically implanted tumor cells spontaneously form lung metastases within three weeks after implantation. […] Tumor length and width were recorded, and tumor volumes were calculated using the formula: volume (mm^3)=(width)^2×length/2. […] On day 21, mice were euthanized and tumor nodules in lungs were counted as described above. […] Tumor length and width were recorded, and tumor volumes were calculated similar with
4T1 cells (5×10^5) were inoculated into the 4th mammary pads on day 0, and 1V270 (20, 80, or 200 μg/injection) was injected intraperitoneally (i.p.) twice a week for three weeks, starting on day 7 (FIG. 22A). Both the primary tumor volumes and the numbers of lung metastases were evaluated on day 27. […]

For series [2] the following is noted: cited from earlier work.

The structures appear in SMILES notation.

For the compound `CCCCCCCCC=CCCCCCCCC(=O)OCC(COP(=O)(O)OCCNC(=O)c1ccc(Cn2c(=O)[nH]c3c(N)nc(OCCOC)nc32)cc1)OC(=O)CCCCCCCC=CCCCCCCCC` (stereo not shown) [1V270], the “tumor growth at the primary sites of implantation” value in series [1] (1V270 20, 80 or 200 μg/injection i.p. from day 7) is “did not retard tumor growth at the primary sites of implantation”. The “number of lung metastases” value in series [1] (1V270 20, 80 or 200 μg/injection i.p. twice a week for three weeks from day 7, evaluated day 27) was “decreased the number of lung metastases”. Further, in series [1] (anti-CD8 mAb depletion, 1V270 20 μg/injection i.p.), the “numbers of lung nodules after CD8+ cell depletion” value is listed as “increased significantly”. Moreover, the “systemic cytokine release after intranasal administration” value in series [2] is listed as “without inducing systemic cytokine release”.
